The values below come from patent publication US8796259B2, “N3-heteroaryl substituted triazoles and N5-heteroaryl substituted triazoles useful as axl inhibitors” (Rigel Pharmaceuticals, Inc., priority 2006, dated 2014).

For this assay, the target named is T1, Axl (Homo sapiens, UniProt P30530).
T1 construct: endogenous in cells; host or cells: HeLa cells
T1 sequence (P30530 26-894): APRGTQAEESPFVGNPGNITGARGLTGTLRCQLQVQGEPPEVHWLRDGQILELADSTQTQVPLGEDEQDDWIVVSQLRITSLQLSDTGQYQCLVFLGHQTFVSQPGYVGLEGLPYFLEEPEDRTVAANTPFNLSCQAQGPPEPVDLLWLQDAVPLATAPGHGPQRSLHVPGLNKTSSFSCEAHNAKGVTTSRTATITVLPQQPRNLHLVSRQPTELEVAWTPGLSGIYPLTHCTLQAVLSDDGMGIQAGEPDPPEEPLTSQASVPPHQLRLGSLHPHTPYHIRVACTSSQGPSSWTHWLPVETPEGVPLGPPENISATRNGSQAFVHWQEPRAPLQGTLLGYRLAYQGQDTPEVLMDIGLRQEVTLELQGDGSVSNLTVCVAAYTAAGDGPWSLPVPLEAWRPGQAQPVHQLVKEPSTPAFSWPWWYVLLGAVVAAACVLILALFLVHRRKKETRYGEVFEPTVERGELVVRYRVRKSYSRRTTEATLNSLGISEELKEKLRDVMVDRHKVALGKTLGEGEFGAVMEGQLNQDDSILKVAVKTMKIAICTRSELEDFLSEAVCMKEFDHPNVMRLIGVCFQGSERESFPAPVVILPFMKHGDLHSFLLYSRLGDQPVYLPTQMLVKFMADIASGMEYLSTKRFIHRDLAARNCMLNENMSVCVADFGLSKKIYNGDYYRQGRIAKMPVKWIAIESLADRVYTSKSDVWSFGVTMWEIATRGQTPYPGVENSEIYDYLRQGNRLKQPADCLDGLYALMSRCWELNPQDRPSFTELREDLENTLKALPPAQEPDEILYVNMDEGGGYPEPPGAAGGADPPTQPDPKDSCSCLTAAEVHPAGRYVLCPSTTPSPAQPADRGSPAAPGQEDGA
In words: Phospho-Akt in-cell Western assay (inhibition of Axl activity, Axl-antibody cross-linking stimulation). In kind it is cell-based. As to conditions: Hela cells, phospho-Akt readout. The gist of the method:
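HeLa cells on poly-L-lysine were starved 24 h in 0.5% FCS/DMEM with 500 ng/mL Axl/Fc, pre-treated with compound 1 h at 37 °C, then stimulated 5 min by cross-linked mouse anti-Axl/biotin anti-mouse antibody clusters. After formaldehyde fixation, phospho-Akt was detected by rabbit anti-phospho-Akt and HRP secondary with chemiluminescence read-out.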

Where [1] appears, read: compounds of formula (Ia), Table 1.

Usually IC50 stands for the midpoint of a concentration-inhibition curve. A lower IC50 goes with greater potency in that assay.

The molecule `Cc1csc2c(-n3nc(Nc4ccc(C5CCN(C6CC7CCC6C7)CC5)nc4)nc3N)nc(Cl)nc12` (centres unmarked) [compound 83, 1-(2-chloro-7-methylthieno [3,2-d]pyrimidine-4-yl)-N^3-(6-(1-bicyclo[2.2.1]heptan-2-ylpiperidin-4-yl)pyridine-3-yl)-1H-1,2,4-triazole-3,5-diamine] came in with an IC50 under setting [1] of less than 1 µM. With `Cc1csc2c(-n3nc(Nc4cnc5c(c4)CC(NC4CCN(C)CC4)CC5)nc3N)ncnc12` (centres unmarked) [compound 84, 1-(7-methylthieno [3,2-d]pyrimidin-4-yl)-N^3-(6-(1-methyl-piperidin-4-ylamino)-5,6,7,8-tetrahydro-quinolin-3-yl)-1H-1,2,4-triazole-3,5-diamine], under setting [1], the IC50 is less than 1 µM. On the same count and under the same terms, the value for `Cc1csc2c(-n3nc(Nc4cnc5c(c4)CC(N4CCCC4)CC5)nc3N)ncnc12` (centres unmarked) [compound 85, 1-(7-methylthieno [3,2-d]pyrimidin-4-yl)-N^3-(6-pyrrolidin-1-yl-5,6,7,8-tetrahydro-quinolin-3-yl)-1H-1,2,4-triazole-3,5-diamine] was less than 1 µM. In turn, `Cc1csc2c(-n3nc(Nc4cnc5c(c4)CN(C4CCN(C)CC4)CC5)nc3N)nc(Cl)nc12` [compound 86, 1-(2-chloro-7-methylthieno [3,2-d]pyrimidine-4-yl)-N^3-(6-(1-methyl-piperidin-4-yl)-5,6,7,8-tetrahydro-1,6-naphthyridin-3-yl)-1H-1,2,4-triazole-3,5-diamine] had an IC50 under setting [1] of less than 1 µM. Turning to `Cc1csc2c(-n3nc(Nc4cnc5c(c4)CN(C(=O)C4CCNCC4)CC5)nc3N)nc(Cl)nc12` [compound 87, 1-(2-chloro-7-methylthieno [3,2-d]pyrimidin-4-yl)-N^3-(6-(piperidin-4-ylcarbonyl)-5,6,7,8-tetrahydro-1,6-naphthyridin-3-yl)-1H-1,2,4-triazole-3,5-diamine], the IC50 under setting [1] was greater than 20 µM. `Cc1csc2c(-n3nc(Nc4ccc(C5CCN(C6CC7CCC6C7)CC5)nc4)nc3N)ncnc12` (centres unmarked) [compound 88, 1-(7-methylthieno [3,2-d]pyrimidine-4-yl)-N^3-(6-(1-bicyclo [2.2.1]heptan-2-ylpiperidin-4-yl)pyridine-3-yl)-1H-1,2,4-triazole-3,5-diamine] showed an IC50 under setting [1] of less than 1 µM. `Cc1csc2c(-n3nc(Nc4ccc(N5CCN(CC6CC6)CC5)nc4)nc3N)ncnc12` [compound 89, 1-(7-methylthieno [3,2-d]pyrimidine-4-yl)-N^3-(6-(4-(cyclopropyl-methyl)piperazin-1-yl)pyridine-3-yl)-1H-1,2,4-triazole-3,5-diamine] yielded an IC50 under setting [1] of less than 1 µM. The molecule `COc1cc2ncnc(-n3nc(Nc4ccc(C=CCN5CCN(C6CCCC6)CC5)nc4)nc3N)c2cc1OC` [compound 90, 1-(6,7-dimethoxy-quinazoline-4-yl)-N^3-(6-(3-(4-cyclopentyl-piperazin-1-yl)propenyl)pyridin-3-yl)-1H-1,2,4-triazole-3,5-diamine] yielded an IC50 under setting [1] of less than 1 µM.

As to `Cc1csc2c(-n3nc(Nc4cnc(N5CCC(N6CCCC6)CC5)nc4)nc3N)nc(Cl)nc12` [compound 91, 1-(2-chloro-7-methylthieno [3,2-d]pyrimidin-4-yl)-N^3-(2-(4-pyrrolidin-1ylpiperidin-1-yl)pyrimidin-5-yl)-1H-1,2,4-triazole-3,5-diamine], the IC50 under setting [1] is less than 1 µM.

In turn, `Cc1cc(Nc2nc(N)nn2-c2nc(Cl)nc3c(C)csc23)cnc1N1CCC(N2CCCC2)CC1` [compound 92, 1-(2-chloro-7-methylthieno[3,2-d]pyrimidin-4-yl)-N^5-(6-(4-(pyrrolidin-1-yl)piperidin-1-yl)-5-methylpyridin-3-yl)-1H-1,2,4-triazole-3,5-diamine] returned an IC50 (compounds of formula (Ib), Table 2) of 1 to 10 µM. `Cc1cc(Nc2nc(N)n(-c3ncnc4c(C)csc34)n2)cnc1N1CCN(CC2CC2)CC1` [compound 94, 1-(7-methylthieno [3,2-d]pyrimidine-4-yl)-N^3-(6-(4-(cyclopropyl-methyl)piperazin-1-yl)-5-methyl-pyridine-3-yl)-1H-1,2,4-triazole-3,5-diamine] had an IC50 under setting [1] of less than 1 µM.

For `Cc1cc(Nc2nc(N)n(-c3nc(Cl)nc4c(C)csc34)n2)cnc1N1CCN(CC2CC2)CC1` [compound 95, 1-(2-chloro-7-methylthieno [3,2-d]pyrimidin-4-yl)-N^3-(6-(4-(cyclopropyl-methyl)piperazin-1-yl)-5-methyl-pyridin-3-yl)-1H-1,2,4-triazole-3,5-diamine], the IC50 under setting [1] was less than 1 µM. Same read-out and setting: then `Cc1csc2c(-n3nc(Nc4cnc5c(c4)CN(C(=O)C4CCN(C)CC4)CC5)nc3N)ncnc12` [compound 96, 1-(7-methylthieno [3,2-d]pyrimidin-4-yl)-N^3-(6-(1-methyl-piperidin-4-yl)carbonyl-5,6,7,8-tetrahydro-1,6-naphthyridin-3-yl)-1H-1,2,4-triazole-3,5-diamine], with less than 1 µM; and `Cc1csc2c(-n3nc(Nc4cnc5c(c4)CN(C4CCCC4)CC5)nc3N)ncnc12` [compound 97, 1-(7-methylthieno [3,2-d]pyrimidin-4-yl)-N^3-(6-cyclopentyl-5,6,7,8-tetrahydro-1,6-naphthyridin-3-yl)-1H-1,2,4-triazole-3,5-diamine], with less than 1 µM.

The molecule `Cc1csc2c(-n3nc(Nc4cnc5c(c4)CC(NC(=O)C4CCN(C)CC4)CC5)nc3N)ncnc12` (centres unmarked) [compound 98] yielded an IC50 under setting [1] of less than 1 µM. Same read-out and setting: the value for `Cc1csc2c(-n3nc(Nc4cnc5c(c4)CC(NC4CCCC4)CC5)nc3N)ncnc12` (centres unmarked) [compound 99, 1-(7-methylthieno [3,2-d]pyrimidin-4-yl)-N^3-(6-cyclopentyl-amino-5,6,7,8-tetrahydro-quinolin-3-yl)-1H-1,2,4-triazole-3,5-diamine] was less than 1 µM; that for `Cc1csc2c(-n3nc(Nc4cnc5c(c4)CC(NC4CCCCC4)CC5)nc3N)nc(Cl)nc12` (centres unmarked) [compound 100, 1-(2-chloro-7-methylthieno [3,2-d]pyrimidin-4-yl)-N^3-(6-cyclohexyl-amino-5,6,7,8-tetrahydro-quinolin-3-yl)-1H-1,2,4-triazole-3,5-diamine] was less than 1 µM; that for `Cc1csc2c(-n3nc(Nc4cnc5c(c4)CN(CC4CC4)CC5)nc3N)nc(Cl)nc12` [compound 101, 1-(2-chloro-7-methylthieno [3,2-d]pyrimidin-4-yl)-N^3-(6-cyclopropyl-methyl-5,6,7,8-tetrahydro-1,6-naphthyridin-3-yl)-1H-1,2,4-triazole-3,5-diamine] was less than 1 µM. On to `Cc1csc2c(-n3nc(Nc4cnc5c(c4)CN(C4CC6CCC4C6)CC5)nc3N)nc(Cl)nc12` (centres unmarked) [compound 102, 1-(2-chloro-7-methylthieno [3,2-d]pyrimidin-4-yl)-N^3-(6-bicyclo[2.2.1]heptan-2-yl-5,6,7,8-tetrahydro-1,6-naphthyridin-3-yl)-1H-1,2,4-triazole-3,5-diamine], for which the IC50 under setting [1] was less than 1 µM.

The molecule `Cc1csc2c(-n3nc(Nc4cnc5c(c4)CC(NC4CC6CCC4C6)CC5)nc3N)nc(Cl)nc12` (centres unmarked) [compound 103, 1-(2-chloro-7-methylthieno [3,2-d]pyrimidin-4-yl)-N^3-(6-bicyclo[2.2.1]heptan-2-yl-amino-5,6,7,8-tetrahydro-quinolin-3-yl)-1H-1,2,4-triazole-3,5-diamine] came in with an IC50 under setting [1] of less than 1 µM.
